Assay results as given in patent US7163939.
Read-outs that look alike come from different tables or passages of the source.

Conditions: rcm bond

`O=C1Nc2cncc(n2)OCCC=CCOc2ccc(Cl)cc2N1` showed a ring closure, isolated yield (from C=CCCOc1cncc(NC(=O)Nc2cc(Cl)ccc2OCC=C)n1, 15-membered ring, Grubbs II (15 mol%), CH2Cl2, 2.4 mM, 50.0 °C, 16.0 h) of 40%.

`N#Cc1ncc2nc1OCCC=CCOc1c(F)cc(Cl)cc1NC(=O)N2` gave a ring closure, isolated yield (from C=CCCOc1nc(NC(=O)Nc2cc(Br)cc(F)c2OCC=C)cnc1C#N, 15-membered ring, Grubbs II (10 mol%), CH2Cl2, 1.47 mM, 25.0 °C, 6.0 h) of 64%.

`Cc1cc(Cl)c2c(c1)NC(=O)Nc1cnc(C#N)c(n1)OCCC=CCO2` showed a ring closure, isolated yield (from C=CCCOc1nc(NC(=O)Nc2cc(C)cc(Br)c2OCC=C)cnc1C#N, 15-membered ring, Grubbs II (10 mol%), CH2Cl2, 2.11 mM, 40.0 °C, 16.0 h) of 72%.

With `C[Si](C)(C)CCOCOc1cc2c(cc1Cl)NC(=O)Nc1cnc(C#N)c(n1)OCCC=CCO2` the ring closure, isolated yield (from C=CCCOc1nc(NC(=O)Nc2cc(Cl)c(OCOCC[Si](C)(C)C)cc2OCC=C)cnc1C#N, 15-membered ring, Grubbs II (10 mol%), DMSO workup, CH2Cl2, 1.5 mM, 25.0 °C, 16.0 h) was 92%.

Compound `N#Cc1ncc2nc1OCC=CCOc1ccc(Cl)cc1NC(=O)N2` has a ring closure, isolated yield (from C=CCOc1ccc(Cl)cc1NC(=O)Nc1cnc(C#N)c(OCC=C)n1, 14-membered ring, Grubbs II (15 mol%), CH2Cl2, 1.8 mM, 40.0 °C, 16.0 h) of 54%.

For `N#Cc1ncc2nc1OCCC=CCOc1ncc(Cl)cc1NC(=O)N2`, the ring closure, isolated yield (from C=CCCOc1nc(NC(=O)Nc2cc(Cl)cnc2OCC=C)cnc1C#N, 15-membered ring, Grubbs II (15 mol%), CH2Cl2, 2.75 mM, 40.0 °C, 16.0 h) was 36%.

Work on `CC1C=CCCOc2nc(cnc2C#N)NC(=O)Nc2cc(Cl)ccc2O1` (stereo not drawn) yielded a ring closure, isolated yield (from C=CCCOc1nc(NC(=O)Nc2cc(Cl)ccc2OC(C)C=C)cnc1C#N, 15-membered ring, Grubbs II (10 mol%), CH2Cl2, 1.97 mM, 25.0 °C, 36.0 h) of 63%.

`N#Cc1ncc2nc1OCCC=CCOc1cc(N)c(Cl)cc1NC(=O)N2` showed a ring closure, isolated yield (from C=CCCOc1nc(NC(=O)Nc2cc(Cl)c(N)cc2OCC=C)cnc1C#N, 15-membered ring, Grubbs II (10 mol%), DMSO workup, CH2Cl2, 1.96 mM, 25.0 °C, 16.0 h) of 77%.

Work on “2-oxo-18-[3-(tetrahydro-2H-pyran-2-yloxy)propyl]-2,3,11,14-tetrahydro-1H,10H-8,4-epiazeno-9,15,1,3,6-benzodioxatriazacycloheptadecine-7-carbonitrile” yielded a ring closure, isolated yield (15-membered ring) of 37%.
